# Test results: ChEMBL document CHEMBL1201862, “PubChem BioAssay data set” (2004)
# Active and inactive are the calls of the source.
# What was measured:
# [1] = HEp-2 cell cytotoxicity, dose response, cytotoxicity control for RSV inhibitor project, HTS (AID 2410); format: functional; settings: human respiratory syncytial virus
# [2] = THP-1 cell cytotoxicity, dose response, cytotoxicity control for Vif-APOBEC3G degradation inhibitor project, THP-1 cells (AID 1117359); format: functional; settings: Human immunodeficiency virus 1, THP-1
# [3] = growth suppression of PTEN-null colon cells, dose response, cell-based, HCT116 PTEN knockout (AID 1047); format: functional;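 also: HCT116 colon tumor cells with PTEN knocked out; cells exposed to compound for 60 hours before readout; potency for loss of cell viability measured by luminescence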
# [4] = growth suppression of beta-catenin-knockout colon cells, dose response, cell-based, HCT116, human colon tumor (AID 1045); format: functional;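 also: HCT116 colon tumor cells with beta catenin knocked out; cells exposed to compound for 60 hours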
# [5] = target: T1, Corticotropin-releasing factor receptor 2/Corticotropin-releasing factor-binding protein (Homo sapiens, UniProt P24387+Q13324); experiment: activators of CRF receptor 2 with binding protein – uHTS hits, confirmation (AID 602473); format: functional; settings: read-out: EC50_Mean
# T1 sequence (Q13324 whole entry): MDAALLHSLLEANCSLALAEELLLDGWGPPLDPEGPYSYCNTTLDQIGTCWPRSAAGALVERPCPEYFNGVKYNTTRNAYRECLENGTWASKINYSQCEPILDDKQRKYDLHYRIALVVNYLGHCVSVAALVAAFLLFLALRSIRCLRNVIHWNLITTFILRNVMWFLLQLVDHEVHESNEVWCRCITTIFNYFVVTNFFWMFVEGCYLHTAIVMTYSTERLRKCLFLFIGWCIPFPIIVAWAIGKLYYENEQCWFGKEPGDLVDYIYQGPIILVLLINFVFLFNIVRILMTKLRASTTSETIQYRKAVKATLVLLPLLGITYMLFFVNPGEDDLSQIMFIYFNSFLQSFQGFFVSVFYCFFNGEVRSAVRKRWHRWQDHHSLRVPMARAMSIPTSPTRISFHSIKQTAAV
# T1 sequence (P24387 whole entry): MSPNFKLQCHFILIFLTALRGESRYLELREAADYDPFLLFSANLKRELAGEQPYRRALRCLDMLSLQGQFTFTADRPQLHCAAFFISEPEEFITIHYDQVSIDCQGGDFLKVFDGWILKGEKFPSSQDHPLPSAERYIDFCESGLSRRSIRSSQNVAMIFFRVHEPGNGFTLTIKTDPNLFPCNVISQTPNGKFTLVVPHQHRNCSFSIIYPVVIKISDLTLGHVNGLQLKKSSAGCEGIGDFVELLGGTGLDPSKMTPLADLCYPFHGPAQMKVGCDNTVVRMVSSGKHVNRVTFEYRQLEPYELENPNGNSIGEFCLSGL
# Streptokinase A = target: T2, Streptokinase A (Streptococcus pyogenes serotype M1, UniProt P10520); experiment: S. pyogenes streptokinase expression inhibitors, potency, dose response, plasminogen activation absorbance, OD405 (AID 1914); format: functional, Streptococcus pyogenes M1 GAS;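 also: secreted streptokinase activity via plasminogen activation per viability signal from cell pellet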
# T2 sequence (P10520 whole entry): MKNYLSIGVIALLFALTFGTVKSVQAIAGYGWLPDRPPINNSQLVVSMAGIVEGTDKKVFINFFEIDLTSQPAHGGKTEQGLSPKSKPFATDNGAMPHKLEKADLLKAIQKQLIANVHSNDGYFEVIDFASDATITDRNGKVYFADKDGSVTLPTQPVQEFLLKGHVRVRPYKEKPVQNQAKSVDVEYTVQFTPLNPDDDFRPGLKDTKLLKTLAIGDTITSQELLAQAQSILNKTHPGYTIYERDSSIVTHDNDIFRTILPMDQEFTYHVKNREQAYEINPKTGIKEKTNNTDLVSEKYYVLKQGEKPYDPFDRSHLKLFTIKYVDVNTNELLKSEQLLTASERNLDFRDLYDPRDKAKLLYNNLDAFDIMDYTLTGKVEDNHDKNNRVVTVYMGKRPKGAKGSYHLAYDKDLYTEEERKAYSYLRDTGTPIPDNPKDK
# Leucine aminopeptidase = target: T3, Leucine aminopeptidase (Plasmodium falciparum 3D7, UniProt Q8IL11); experiment: P. falciparum M17LAP inhibitors, primary screen, biochemical, fluorogenic H-Leu-NHMec substrate, 1536-well (AID 1619); format: functional
# T3 sequence (Q8IL11 whole entry): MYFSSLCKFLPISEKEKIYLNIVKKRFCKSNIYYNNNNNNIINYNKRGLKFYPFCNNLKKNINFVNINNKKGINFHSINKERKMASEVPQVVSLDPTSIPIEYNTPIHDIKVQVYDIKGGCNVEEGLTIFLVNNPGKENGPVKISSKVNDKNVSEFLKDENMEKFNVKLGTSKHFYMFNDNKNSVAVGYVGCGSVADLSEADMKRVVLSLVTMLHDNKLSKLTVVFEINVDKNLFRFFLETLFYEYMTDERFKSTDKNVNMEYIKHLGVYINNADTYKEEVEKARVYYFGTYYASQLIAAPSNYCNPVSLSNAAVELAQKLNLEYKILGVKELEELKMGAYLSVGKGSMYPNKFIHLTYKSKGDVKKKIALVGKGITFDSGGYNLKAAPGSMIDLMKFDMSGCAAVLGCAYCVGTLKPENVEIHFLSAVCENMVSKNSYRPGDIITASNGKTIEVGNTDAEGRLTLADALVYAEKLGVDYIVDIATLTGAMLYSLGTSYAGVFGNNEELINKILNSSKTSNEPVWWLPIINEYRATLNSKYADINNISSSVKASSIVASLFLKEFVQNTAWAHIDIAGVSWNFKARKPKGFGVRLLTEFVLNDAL
# [6] = target: T1, Corticotropin-releasing factor receptor 2/Corticotropin-releasing factor-binding protein; experiment: Dose Response confirmation of uHTS hits for small molecule antagonists of the CRF-binding protein and CRF-R2 receptor complex.; format: functional; settings: read-out: IC50_Mean
# [7] = cytotoxicity toward DRD oncogenic fibroblasts, dose response, cell-based, non-viral oncogenic, luminescence (AID 1934); format: functional; settings: Homo sapiens
# BJ [8] = experiment: cells; format: functional, cell-based; settings: Homo sapiens
# BJ [9] = experiment: cytotoxicity toward BJ-TERT-LT-ST fibroblasts, dose response, cell-based, RAS-independent, luminescence (AID 1935); format: functional; settings: Homo sapiens;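 also: BJ fibroblasts immortalized with TERT plus LT and ST oncogenes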
# [10] = HEK293 cell cytotoxicity, dose response, cytotoxicity control, plate reader, cherry-picked samples (AID 743446); format: functional, cell-based
# [11] = A549 cell cytotoxicity, dose response, cytotoxicity control, plate reader, cherry-pick, antagonist series (AID 743412); format: functional, cell-based
# BJ [12] = experiment: cytotoxicity toward BJ-TERT fibroblasts, dose response, cell-based, RAS-independent, luminescence (AID 1933); format: functional; settings: Homo sapiens
# [13] = HepG2 cell cytotoxicity, dose response, cytotoxicity control, plate reader, cherry-pick, antagonist series (AID 743416); format: functional, cell-based
# [14] = cytotoxicity in HEK-293T cells, dose response, cytotoxicity control for BCR NF-kB inhibitor project, luminescence, B-cell screen hits (AID 489021); format: functional, cell-based;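 also: HEK-293T cells carrying an NF-kB luciferase reporter; cells exposed to compound for about 14 hours before viability readout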
# [15] = cytotoxicity toward NIH3T3 fibroblasts, dose response, counter-screen, cell-based, ATP luminescence, mouse fibroblasts (AID 2010); format: functional;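 also: cells exposed to compound for about 90 hours before reading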
# [16] = inhibitors of intracellular T. cruzi replication, confirmation, NIH3T3 host cells, beta-gal luminescence (AID 2044); format: functional, cell-based;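 also: intracellular parasites grown in NIH/3T3 mouse fibroblasts as host cells; luminescent beta-galactosidase reporter signal from transgenic T. cruzi replicating inside host cells; inhibitors lower the luminescence signal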
# [17] = tested on: Streptococcus sp. 'group A'; experiment: growth inhibition of control SK(-) GAS strain, dose response, counter-screen for streptokinase expression inhibitor project, luminescence, kanamycin, BacTiterGlo, confirmation (AID 1900); format: functional, organism-based
# Streptococcus = experiment: Group A Streptococcus viability loss, dose response, counter-screen for streptokinase expression inhibitor project, luminescence, BacTiterGlo (AID 1915); format: functional, organism-based;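 also: potency for reduction of bacterial viability or growth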
# [18] = inhibitors of firefly luciferase expression or activity, dose response, H4 neuroglioma cells, luminescence (AID 1990); format: functional, cell-based
# [19] = target: T4, Microphthalmia-associated transcription factor (Homo sapiens, UniProt O75030); experiment: TRPM1 promoter luciferase signal decrease, dose response, MITF inhibitor project, cell-based, SK-MEL-5, cherry-picked, set 3 (AID 493073); format: functional
# T4 sequence (O75030 whole entry): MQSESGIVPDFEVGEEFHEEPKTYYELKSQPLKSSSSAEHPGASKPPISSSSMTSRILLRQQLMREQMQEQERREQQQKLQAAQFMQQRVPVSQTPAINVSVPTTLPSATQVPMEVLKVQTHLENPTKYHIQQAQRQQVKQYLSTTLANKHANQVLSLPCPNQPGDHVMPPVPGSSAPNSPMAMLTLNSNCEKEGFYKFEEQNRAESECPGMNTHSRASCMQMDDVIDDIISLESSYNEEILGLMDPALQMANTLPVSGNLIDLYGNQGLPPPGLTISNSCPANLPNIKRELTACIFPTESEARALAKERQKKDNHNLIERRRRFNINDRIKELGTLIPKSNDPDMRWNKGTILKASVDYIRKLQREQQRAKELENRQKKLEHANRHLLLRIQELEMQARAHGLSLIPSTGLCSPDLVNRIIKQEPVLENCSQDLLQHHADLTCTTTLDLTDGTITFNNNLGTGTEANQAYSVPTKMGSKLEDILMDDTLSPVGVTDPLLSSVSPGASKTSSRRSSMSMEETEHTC
# [20] = inhibitors of SNCA 5'UTR-driven reporter translation, confirmation, H4 neuroglioma cells, luminescence (AID 1988); format: functional, cell-based
# [21] = Luminescence Cell-Based Dose Response HTS to Identify Inhibitors of 5'UTR Stem-Loop Driven Prion Protein mRNA Translation in H4 Neuroglioblastoma Cells. [Related pubchem assays: 1827 (Project Summary), 1813 (Primary HTS)]; format: functional
# [22] = target: T5, Polyadenylate-binding protein 1 (Homo sapiens, UniProt P11940); experiment: PABP1 MLLE–PAM2 binding inhibitor potency, dose response, biochemical, fluorescence polarization, FITC-PAM2 peptide (AID 602259); format: functional; settings: read-out: IC50_Mean
# [23] = microbe, parasite or virus in culture; format: functional; settings: Mycobacterium tuberculosis
# [24] = target: T5, Polyadenylate-binding protein 1; experiment: PABP1 MLLE–PAM2 interaction inhibitors, dose response, miRNA deadenylation inhibitor project, biochemical, fluorescence polarization, Cy5-PAM2 peptide, secondary (AID 602260); format: functional; settings: read-out: IC50_Mean
# T5 sequence (P11940 whole entry): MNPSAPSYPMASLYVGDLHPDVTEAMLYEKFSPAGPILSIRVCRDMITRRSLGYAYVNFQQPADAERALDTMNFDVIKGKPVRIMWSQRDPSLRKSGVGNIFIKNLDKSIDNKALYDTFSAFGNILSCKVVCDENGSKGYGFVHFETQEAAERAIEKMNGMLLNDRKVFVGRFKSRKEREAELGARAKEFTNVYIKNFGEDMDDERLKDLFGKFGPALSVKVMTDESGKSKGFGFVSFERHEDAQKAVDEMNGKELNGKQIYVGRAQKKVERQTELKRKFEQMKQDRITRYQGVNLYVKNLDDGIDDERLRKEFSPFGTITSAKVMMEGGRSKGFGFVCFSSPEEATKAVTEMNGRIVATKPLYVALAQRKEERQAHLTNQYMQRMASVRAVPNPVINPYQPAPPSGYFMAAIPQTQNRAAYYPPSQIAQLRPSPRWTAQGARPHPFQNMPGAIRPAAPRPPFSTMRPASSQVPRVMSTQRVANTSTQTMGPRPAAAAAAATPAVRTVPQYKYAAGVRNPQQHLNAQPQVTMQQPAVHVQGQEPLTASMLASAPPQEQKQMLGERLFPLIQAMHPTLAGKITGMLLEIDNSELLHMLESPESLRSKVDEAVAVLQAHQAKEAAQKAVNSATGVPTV
structure (smiles),measurement,setting,value
O=C(O)c1cccc(COc2cccc3ccccc23)c1,CC50,[1],31.1 µM (active)
same,IC50,cells,28.2 µM (active)
O=C(NC(Cc1ccccc1)c1nc2ccccc2[nH]1)c1cccc([N+](=O)[O-])c1 (centres undefined),CC50,[2],> 40 µM (active)
COc1ccc2cnn(CCOc3cc(C)ccc3C(C)C)c(=O)c2c1OC,CC50,[2],> 40 µM (active)
O=C(c1cccc(N2C(=O)C3C4C=CC(C4)C3C2=O)c1)N1CCN(c2ccccc2Cl)CC1 (centres undefined),CC50,[1],> 50 µM (active)
same,IC50,cells,32.6 µM (active)
Clc1ccc(OCCCNCc2ccccc2)c(Br)c1,EC50,[3],23.1 µM (active)
same,EC50,[4],17.4 µM (active)
Cc1cc(=O)[nH]c(SCC(=O)Nc2ccc(Br)cc2)c1C#N,EC50,[5],8.83 µM (active)
same,EC50,Streptokinase A,> 150 µM (not active)
same,IC50,Leucine aminopeptidase,1.48 µM (active)
same,IC50,[6],2.16 µM (active)
CC(C)N(C(=O)COC(=O)c1ccccc1C(=O)c1ccc(Cl)c([N+](=O)[O-])c1)C(C)C,EC50,[7],> 150 µM (not active)
same,EC50,BJ [8],> 150 µM (not active)
same,EC50,BJ [9],> 75 µM (inconclusive)
same,AC50,[10],> 52 µM (inactive)
same,AC50,[11],34.2 µM (active)
same,EC50,BJ [12],15.1 µM (active)
same,AC50,[13],> 52 µM (inactive)
Oc1[nH]c2ccccc2c1N=Nc1nc(Nc2ccccc2)nc(N2CCOCC2)n1,IC50,[14],50.1 µM (inactive)
Cc1cc(/C=C(\C#N)C(=O)NCc2ccco2)c(C)n1-c1ccc(C(=O)O)cc1,IC50,Leucine aminopeptidase,41.1 µM (active)
Cc1cccc(N2CCN(C(=O)c3ccccc3NC(=O)C3CC=CCC3C(=O)O)CC2)c1 (centres undefined),IC50,Leucine aminopeptidase,19.1 µM (active)
CC(C)OCCCNC(=O)c1c(N)n(/N=C/c2ccccn2)c2nc3ccccc3nc12,IC50,[14],> 80 µM (inactive)
CC(=O)c1cccc(NC(S)=NCCC2=CCCCC2)c1,EC50,[3],34 µM (active)
same,EC50,[4],22.6 µM (active)
CCC(CO)Oc1cc(NCc2ccccc2O)c2ncn(C(C)C)c2c1 (centres undefined),IC50,[14],> 80 µM (inactive)
O=C(/C=C/c1ccccc1)Nc1sc2c(c1C(=O)O)CCC2,CC50,[1],19.7 µM (active)
same,IC50,cells,26.1 µM (active)
Cc1nc2cc(-c3ccc(Cl)cc3)nn2c(C)c1CCC(=O)NCc1ccco1,IC50,[14],> 80 µM (inactive)
CC1=NNC(=O)C1CCC(=O)N/N=C/C=C/c1ccccc1 (centres undefined),IC50,Leucine aminopeptidase,51.4 µM (active)
O=C(Nc1ccc(F)cc1F)NC1CCN(S(=O)(=O)c2ccc(F)cc2)CC1,CC50,[2],> 40 µM (active)
O=C(c1ccc(Br)o1)N1CCN(c2ccc3nnc(-c4ccccc4)n3n2)CC1,IC50,cells,48.6 µM (active)
Cn1c(=O)n(CCc2ccccc2)c(=O)c2c1ncn2Cc1ccccc1,EC50,[3],47.7 µM (active)
same,EC50,[4],97.4 µM (active)
CCOc1cccc2sc(Nc3nc4ccc(NC(C)=O)cc4s3)nc12,EC50,Streptokinase A,> 150 µM (not active)
same,AC50,[10],24.5 µM (active)
same,AC50,[11],9.66 µM (active)
same,EC50,[15],> 60 µM (not active)
same,AC50,[13],5.46 µM (active)
same,EC50,[16],2.44 µM (active)
same,EC50,[17],23.3 µM (active)
same,EC50,Streptococcus,> 150 µM (not active)
O=C(CCCN1C(=O)S/C(=C\c2ccccc2)C1=O)NNC(=O)c1ccccc1O,EC50,[18],< 0.1 µM (active)
same,AC50,[19],33.9 µM (active)
same,IC50,[14],> 80 µM (inactive)
same,EC50,[20],0.157 µM (active)
same,EC50,[21],15.2 µM (active)
CCCCCC(=O)NNC(=S)NC(=O)c1ccc([N+](=O)[O-])cc1,IC50,[22],> 66 µM (inactive)
same,CC50,[23],> 40 µM (active)
same,IC50,[24],> 66 µM (inactive)
same,IC50,Leucine aminopeptidase,49.2 µM (active)
CSCCC(NS(=O)(=O)c1ccc2nc(O)c(O)nc2c1)C(=O)O (centres undefined),IC50,Leucine aminopeptidase,6.94 µM (active)
Cc1ccccc1NC(=O)C1CCCN1S(=O)(=O)c1cccc2cccnc12 (centres undefined),CC50,[1],> 50 µM (active)
same,IC50,cells,19.5 µM (active)
